As a reminder, the IC50 is the midpoint of a concentration-inhibition curve. Higher therefore signals lower potency.

Structures are written as SMILES.

Lp(a) assembly in HepG2 cells overexpressing ApoA protein, sequence (P08519 20-2040): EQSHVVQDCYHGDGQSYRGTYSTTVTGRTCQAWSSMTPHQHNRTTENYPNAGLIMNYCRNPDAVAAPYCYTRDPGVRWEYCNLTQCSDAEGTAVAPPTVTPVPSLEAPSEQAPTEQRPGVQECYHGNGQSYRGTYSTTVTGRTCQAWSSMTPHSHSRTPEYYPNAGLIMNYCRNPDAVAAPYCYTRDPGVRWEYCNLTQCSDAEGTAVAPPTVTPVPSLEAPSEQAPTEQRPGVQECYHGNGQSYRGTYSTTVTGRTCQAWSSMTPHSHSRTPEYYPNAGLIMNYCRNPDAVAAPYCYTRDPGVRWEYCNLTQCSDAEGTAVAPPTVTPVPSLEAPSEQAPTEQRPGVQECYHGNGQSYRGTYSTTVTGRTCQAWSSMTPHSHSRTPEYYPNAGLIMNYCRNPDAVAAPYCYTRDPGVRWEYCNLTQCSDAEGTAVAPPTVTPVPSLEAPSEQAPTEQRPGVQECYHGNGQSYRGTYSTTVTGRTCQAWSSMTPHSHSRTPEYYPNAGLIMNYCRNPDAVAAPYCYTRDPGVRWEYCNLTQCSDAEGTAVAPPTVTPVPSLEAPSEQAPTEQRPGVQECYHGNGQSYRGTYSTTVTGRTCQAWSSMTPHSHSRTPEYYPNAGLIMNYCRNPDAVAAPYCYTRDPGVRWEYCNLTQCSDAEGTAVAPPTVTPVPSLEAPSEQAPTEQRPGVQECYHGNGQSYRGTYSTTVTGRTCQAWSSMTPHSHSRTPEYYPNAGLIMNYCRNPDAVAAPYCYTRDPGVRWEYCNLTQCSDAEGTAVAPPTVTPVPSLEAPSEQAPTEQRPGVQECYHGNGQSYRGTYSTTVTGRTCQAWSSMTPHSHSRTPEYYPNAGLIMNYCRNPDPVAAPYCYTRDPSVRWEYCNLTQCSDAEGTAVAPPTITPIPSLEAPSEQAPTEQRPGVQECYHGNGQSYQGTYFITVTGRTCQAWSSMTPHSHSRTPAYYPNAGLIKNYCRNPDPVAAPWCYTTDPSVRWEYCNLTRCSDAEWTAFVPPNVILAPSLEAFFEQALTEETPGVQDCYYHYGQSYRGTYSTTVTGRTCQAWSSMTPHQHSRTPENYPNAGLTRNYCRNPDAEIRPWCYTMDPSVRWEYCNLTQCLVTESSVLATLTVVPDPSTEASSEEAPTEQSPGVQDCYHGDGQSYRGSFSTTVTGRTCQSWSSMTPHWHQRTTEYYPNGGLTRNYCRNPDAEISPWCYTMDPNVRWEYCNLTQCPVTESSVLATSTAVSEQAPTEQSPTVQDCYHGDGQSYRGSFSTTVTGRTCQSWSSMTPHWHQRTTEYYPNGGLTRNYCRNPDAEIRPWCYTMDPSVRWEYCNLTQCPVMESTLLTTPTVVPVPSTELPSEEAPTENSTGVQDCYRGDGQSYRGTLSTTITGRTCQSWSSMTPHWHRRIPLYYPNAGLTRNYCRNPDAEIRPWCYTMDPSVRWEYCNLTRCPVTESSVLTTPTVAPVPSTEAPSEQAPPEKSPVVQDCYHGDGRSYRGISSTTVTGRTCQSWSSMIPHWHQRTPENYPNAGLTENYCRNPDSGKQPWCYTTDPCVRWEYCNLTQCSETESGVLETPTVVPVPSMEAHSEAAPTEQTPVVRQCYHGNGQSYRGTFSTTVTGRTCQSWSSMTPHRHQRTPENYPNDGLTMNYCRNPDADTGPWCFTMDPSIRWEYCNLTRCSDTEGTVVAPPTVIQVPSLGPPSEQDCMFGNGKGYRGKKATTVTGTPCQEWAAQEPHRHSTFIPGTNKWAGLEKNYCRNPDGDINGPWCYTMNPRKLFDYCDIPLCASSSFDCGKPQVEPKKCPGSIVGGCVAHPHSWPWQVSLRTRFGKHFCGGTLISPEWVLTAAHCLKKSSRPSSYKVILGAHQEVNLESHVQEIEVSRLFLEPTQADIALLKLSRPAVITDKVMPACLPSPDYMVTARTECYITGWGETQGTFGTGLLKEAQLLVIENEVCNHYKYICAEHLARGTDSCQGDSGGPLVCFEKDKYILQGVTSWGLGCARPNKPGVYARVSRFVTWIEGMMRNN

The subject of the first test is serum Lp(a). Description: Humanized mouse Lp(a) inhibition test. The class given is in vivo, humanized Lp(a) transgenic mouse. The following applies: 5 mg/kg oral once daily for 3 days, blood 8 h after last dose, humanized Lp(a) mice. The procedure:
The in vivo pharmacodynamics of the compounds in reducing Lp(a) was evaluated in a humanized Lp(a) transgenic mouse model. Lp(a) mice were obtained by crossing mice expressing humanized apoB-100 with mice expressing humanized apo(a) containing 16 Kringle repeats. Female mice aged 8-9 weeks were selected for the test. Housing conditions: standard light cycle (12 h light/12 h dark), temperature 20-25° C., humidity 40-70%, free access to water and normal diet. is One day before the test, mice were divided into vehicle control group and test article group (n=5/group) according to body weight and baseline plasma Lp(a) concentration. Mice were orally administered with vehicle (normal saline, 10 mL/kg) or test compound (prepared with normal saline to 3 or 0.5 mg/mL, each mouse received 10 mL/kg), once daily (9:00 am) for 3 consecutive days, and blood was collected to determine the change of serum Lp(a). Eight hours after the last dose, 10 μL of blood was collected from the tail vein and transferred to a 1.5 mL centrifuge tube containing 90 μL of normal saline, mixed well, and left to stand on ice for 30 min. The above samples were centrifuged at 4° C., 3000 rpm for 10 min, and the supernatant was collected and placed on ice. The Lp(a) concentration in the supernatant was measured by double-antibody sandwich ELISA using an anti-apo(a) capture antibody and an HRP-conjugated anti-ApoB detection antibody, with TMB for color development. The reaction was stopped with 1 N sulfuric acid, and the OD value was read at 450 nm on a Tecan microplate reader. Inhibition rate was calculated for each dosing group. Inhibition rate (%)=(vehicle control group Lp(a) concentration or self pre-dose Lp(a) concentration post-dose Lp(a) concentration)/vehicle control group Lp(a) concentration or self pre-dose Lp(a) concentration*100.
For the compound `O=C(O)[C@@H](Cc1cccc(CCN(CCOc2cccc(C[C@H](C(=O)O)[C@H]3CCNC3)c2)C(=O)Cc2cccc(C[C@H](C(=O)O)[C@H]3CCNC3)c2)c1)[C@H]1CCNC1` [Compound 100, (S)-3-(3-(2-((3-((S)-2-carboxy-2-((R)-pyrrolidin-3-yl)ethyl)phenethyl)(2-(3-((S)-2-carboxy-2-((R)-pyrrolidin-3-yl)ethyl)phenoxy)ethyl)amino)-2-oxoethyl)phenyl)-2-((R)-pyrrolidin-3-yl)propanoic acid], the “Lp(a) Inhibition Rate” value was 86%. For the compound `O=C(O)[C@@H](Cc1cccc(CCN(CCOc2cccc(C[C@H](C(=O)O)[C@H]3CCNC3)c2)C(=O)Oc2cccc(C[C@H](C(=O)O)[C@H]3CCNC3)c2)c1)[C@H]1CCNC1` [Compound 162, (S)-3-(3-(2-((3-((S)-2-carboxy-2-((R)-pyrrolidin-3-yl)ethyl)phenethyl)((3-((S)-2-carboxy-2-((R)-pyrrolidin-3-yl)ethyl)phenoxy)carbonyl)amino)ethoxy)phenyl)-2-((R)-pyrrolidin-3-yl)propanoic acid], the “Lp(a) Inhibition Rate” value was 79%.

As to `O=C(O)[C@@H](Cc1cccc(OCCN(CCOc2cccc(C[C@H](C(=O)O)[C@H]3CCNC3)c2)C(=O)Oc2cccc(C[C@H](C(=O)O)[C@H]3CCNC3)c2)c1)[C@H]1CCNC1` [Compound 163, (2S,2′S)-3,3′-((((((3-((S)-2-carboxy-2-((R)-pyrrolidin-3-yl)ethyl)phenoxy)carbonyl)azanediyl)bis(ethane-2,1-diyl))bis(oxy))bis(3,1-phenylene))bis(2-((R)-pyrrolidin-3-yl)propanoic acid)], the “Lp(a) Inhibition Rate” value was determined as 81%. As to `O=C(O)[C@@H](Cc1cccc(CN(CCOc2cccc(C[C@H](C(=O)O)[C@H]3CCNC3)c2)C(=O)Cc2cc(C[C@H](C(=O)O)[C@H]3CCNC3)cs2)c1)[C@H]1CCNC1` [Compound 178, ((S)-3-(5-(2-((3-((S)-2-carboxy-2-((R)-pyrrolidin-3-yl)ethyl)benzyl)(2-(3-((S)-2-carboxy-2-((R)-pyrrolidin-3-yl)ethyl)phenoxy)ethyl)amino)-2-oxoethyl)thiophen-3-yl)-2-((R)-pyrrolidin-3-yl)propanoic acid)], the “Lp(a) Inhibition Rate” value is reported as 84%. Regarding `O=C(O)[C@@H](Cc1cccc(OCCN(Cc2cc(C[C@H](C(=O)O)[C@H]3CCNC3)cs2)C(=O)Cc2cc(C[C@H](C(=O)O)[C@H]3CCNC3)cs2)c1)[C@H]1CCNC1` [Compound 180, (S)-3-(5-(2-((2-(3-((S)-2-carboxy-2-((R)-pyrrolidin-3-yl)ethyl)phenoxy)ethyl)((4-((S)-2-carboxy-2-((R)-pyrrolidin-3-yl)ethyl)thiophen-2-yl)methyl)amino)-2-oxoethyl)thiophen-3-yl)-2-((R)-pyrrolidin-3-yl)propanoic acid], the “Lp(a) Inhibition Rate” value was 80%. With `[2H]C([2H])(c1cccc(CC(=O)N(CCOc2cccc(C([2H])([2H])[C@H](C(=O)O)[C@H]3CCNC3)c2)Cc2cccc(C([2H])([2H])[C@H](C(=O)O)[C@H]3CCNC3)c2)c1)[C@H](C(=O)O)[C@H]1CCNC1` [Compound 190, (S)-3-(3-(2-((3-((S)-2-carboxy-2-((R)-pyrrolidin-3-yl)ethyl-1,1-d2)benzyl)(2-(3-((S)-2-carboxy-2-((R)-pyrrolidin-3-yl)ethyl-1,1-d2)phenoxy)ethyl)amino)-2-oxoethyl)phenyl)-2-((R)-pyrrolidin-3-yl)propanoic-3,3-d2 acid], the “Lp(a) Inhibition Rate” value is 83%. The same measure, in the same setting: as for `[2H]C([2H])(c1cccc(C[C@H](C(=O)O)[C@H]2CCNC2)c1)N(CCOc1cccc(C[C@H](C(=O)O)[C@H]2CCNC2)c1)C(=O)Cc1cccc(C[C@H](C(=O)O)[C@H]2CCNC2)c1` [Compound 193, (S)-3-(3-(2-((2-(3-((S)-2-carboxy-2-((R)-pyrrolidin-3-yl)ethyl)phenoxy)ethyl)((3-((S)-2-carboxy-2-((R)-pyrrolidin-3-yl)ethyl)phenyl)methyl-d2)amino)-2-oxoethyl)phenyl)-2-((R)-pyrrolidin-3-yl)propanoic acid], the figure is 88%.

Staying with this test, now noted: 30 mg/kg oral once daily for 3 days, blood 8 h after last dose, humanized Lp(a) mice.
For the compound `O=C(O)[C@@H](Cc1cccc(CN(Cc2cccc(C[C@H](C(=O)O)[C@H]3CCNC3)c2)C(=O)COc2cccc(C[C@H](C(=O)O)[C@H]3CCNC3)c2)c1)[C@H]1CCNC1` [Compound 95, (2S,2′S)-3,3′-((((2-(3-((S)-2-carboxy-2-((R)-pyrrolidin-3-yl)ethyl)phenoxy)acetyl)azanediyl)bis(methylene))bis(3,1-phenylene))bis(2-((R)-pyrrolidin-3-yl)propanoic acid)], the “Lp(a) Inhibition Rate” value stood at 95%.

Another test concerns the target Lp(a) assembly in HepG2 cells overexpressing ApoA protein (Homo sapiens (Human), UniProt P08519). Description: ELISA assay on screening Lp(a) assembly inhibition. In kind it is cell-based. Particulars: HepG2 cells overexpressing ApoA protein, 24 h, ELISA of supernatant. The method in brief: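 HepG2 cells overexpressing ApoA treated with diluted compounds for 24 h at 37 °C, 5% CO2; EACA (10 μL of 1.5 M) added before harvesting supernatant. Secreted Lp(a) quantified by sandwich ELISA; IC50 from four-parameter Hill fit of % inhibition versus concentration.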
On to `O=C(O)[C@@H](Cc1cccc(CN(Cc2cccc(C[C@H](C(=O)O)[C@H]3CCNC3)c2)C(=O)COc2cccc(C[C@H](C(=O)O)[C@H]3CCNC3)c2)c1)[C@H]1CCNC1` [Compound 95, (2S,2′S)-3,3′-((((2-(3-((S)-2-carboxy-2-((R)-pyrrolidin-3-yl)ethyl)phenoxy)acetyl)azanediyl)bis(methylene))bis(3,1-phenylene))bis(2-((R)-pyrrolidin-3-yl)propanoic acid)], for which the IC50 stood at 0.68 nM. Take `O=C(O)[C@@H](Cc1cccc(CCN(CCOc2cccc(C[C@H](C(=O)O)[C@H]3CCNC3)c2)C(=O)Cc2cccc(C[C@H](C(=O)O)[C@H]3CCNC3)c2)c1)[C@H]1CCNC1` [Compound 100, (S)-3-(3-(2-((3-((S)-2-carboxy-2-((R)-pyrrolidin-3-yl)ethyl)phenethyl)(2-(3-((S)-2-carboxy-2-((R)-pyrrolidin-3-yl)ethyl)phenoxy)ethyl)amino)-2-oxoethyl)phenyl)-2-((R)-pyrrolidin-3-yl)propanoic acid]: the midpoint of inhibition, the IC50, lay at 1.12 nM. As to `O=C(O)[C@@H](Cc1cccc(CC(=O)N(CCNc2cccc(C[C@H](C(=O)O)[C@H]3CCNC3)c2)Cc2cccc(C[C@H](C(=O)O)[C@H]3CCNC3)c2)c1)[C@H]1CCNC1` [Compound 146, (S)-3-(3-(2-((3-((S)-2-carboxy-2-((R)-pyrrolidin-3-yl)ethyl)benzyl)(2-((3-((S)-2-carboxy-2-((R)-pyrrolidin-3-yl)ethyl)phenyl)amino)ethyl)amino)-2-oxoethyl)phenyl)-2-((R)-pyrrolidin-3-yl)propanoic acid], half-maximal inhibition (IC50) was put at 0.93 nM. `O=C(O)[C@@H](Cc1cccc(CCC(=O)N(CCNc2cccc(C[C@H](C(=O)O)[C@H]3CCNC3)c2)Cc2cccc(C[C@H](C(=O)O)[C@H]3CCNC3)c2)c1)[C@H]1CCNC1` [Compound 147, (S)-3-(3-(3-((3-((S)-2-carboxy-2-((R)-pyrrolidin-3-yl)ethyl)benzyl)(2-((3-((S)-2-carboxy-2-((R)-pyrrolidin-3-yl)ethyl)phenyl)amino)ethyl)amino)-3-oxopropyl)phenyl)-2-((R)-pyrrolidin-3-yl)propanoic acid] yielded an IC50 of 0.86 nM. In turn, `O=C(O)[C@@H](Cc1cccc(CCC(=O)N(CCOc2cccc(C[C@H](C(=O)O)[C@H]3CCNC3)c2)CCOc2cccc(C[C@H](C(=O)O)[C@H]3CCNC3)c2)c1)[C@H]1CCNC1` [Compound 148, (2S,2′S)-3,3′-(((((3-(3-((S)-2-carboxy-2-((R)-pyrrolidin-3-yl)ethyl)phenyl)propanoyl)azanediyl)bis(ethane-2,1-diyl))bis(oxy))bis(3,1-phenylene))bis(2-((R)-pyrrolidin-3-yl)propanoic acid)] yielded an IC50 of 1.5 nM. With `O=C(O)[C@@H](Cc1cccc(OCc2cc(COc3cccc(C[C@H](C(=O)O)[C@H]4CCNC4)c3)cc(COc3cccc(C[C@H](C(=O)O)[C@H]4CCNC4)c3)c2)c1)[C@H]1CCNC1` [Compound 149, (2S,2′S,2″S)-3,3′,3″-(((benzene-1,3,5-triyltris(methylene))tris(oxy))tris(benzene-3,1-diyl))tris(2-((R)-pyrrolidin-3-yl)propanoic acid)], it took 2.53 nM to reach half-maximal inhibition (IC50). Still for that read-out and setting: as for `O=C(O)[C@@H](Cc1cncc(CC(=O)N(CCOc2cncc(C[C@H](C(=O)O)[C@H]3CCNC3)c2)Cc2cncc(C[C@H](C(=O)O)[C@H]3CCNC3)c2)c1)[C@H]1CCNC1` [Compound 153, (S)-3-(5-(2-(2-(5-((S)-2-carboxy-2-((R)-pyrrolidin-3-yl)ethyl)pyridin-3-yl)-N-((5-((S)-2-carboxy-2-((R)-pyrrolidin-3-yl)ethyl)pyridin-3-yl)methyl)acetamido)ethoxy)pyridin-3-yl)-2-((R)-pyrrolidin-3-yl)propanoic acid], the figure is 2.91 nM; as for `O=C(O)[C@@H](Cc1cccc(CC(=O)N(CCSc2cccc(C[C@H](C(=O)O)[C@H]3CCNC3)c2)Cc2cccc(C[C@H](C(=O)O)[C@H]3CCNC3)c2)c1)[C@H]1CCNC1` [Compound 158, (S)-3-(3-(2-((3-((S)-2-carboxy-2-((R)-pyrrolidin-3-yl)ethyl)benzyl)(2-((3-((S)-2-carboxy-2-((R)-pyrrolidin-3-yl)ethyl)phenyl)thio)ethyl)amino)-2-oxoethyl)phenyl)-2-((R)-pyrrolidin-3-yl)propanoic acid], 1.65 nM; as for `O=C(O)[C@@H](Cc1cccc(CC(=O)N(CCOc2cccc(C[C@H](C(=O)O)[C@@H]3CCNC3)c2)Cc2cccc(C[C@H](C(=O)O)[C@@H]3CCNC3)c2)c1)[C@@H]1CCNC1` [Compound 210, (S)-3-(3-(2-((3-((S)-2-carboxy-2-((S)-pyrrolidin-3-yl)ethyl)benzyl)(2-(3-((S)-2-carboxy-2-((S)-pyrrolidin-3-yl)ethyl)phenoxy)ethyl)amino)-2-oxoethyl)phenyl)-2-((S)-pyrrolidin-3-yl)propanoic acid], 1.52 nM.

The record behind these values is patent US20250179055A1, “Substituted 2-(pyrrolidine-3-yl)acetic acid derivative, preparation method and use thereof” (INNOVSTONE THERAPEUTICS LIMITED, priority 2023, published 2025).
